Key:
PI3K-alpha = PI3K-alpha (Homo sapiens, UniProt P42336); test: PI3K-alpha fluorescence polarization assay; format: biochemical; conditions: 20 μM PIP2, 25 μM ATP; read-out: PI3Kα IC50
Protocol: The reaction buffer was 20 mM HEPES, pH 7.5, 2 mM MgCl2, 0.05% CHAPS; and 0.01% βME (added fresh). The stop/detection buffer was 100 mM HEPES, pH 7.5, 4 mM EDTA, 0.05% CHAPS; ATP 20 mM in water; PIP2 (diC8, Echelon, Salt Lake City Utah cat #P-4508) 1 mM in water (MW=856.5). The GST-GRP was 1.75 mg/mL or 1.4 mg/mL in 10% glycerol. The red detector (TAMRA) was 2.5 μM. Nunc 384-well black polypropylene fluorescent plates were used for PI3K assays.
The assay is run by placing 5 μL of diluted enzyme per well, then 5 μL of diluted compound (or 9.5 μL enzyme then 0.5 μL compound in DMSO) is added and mixed. Then, 10 μL substrate is added to start the reaction. The samples are incubated 30-60 minutes, then the reaction is stopped by adding 20 μL stop/detector mix. PI3K is diluted with reaction buffer (e.g., 5 μL or 7.5 μL PI3K into 620 μL reaction buffer), and 5 μL of diluted enzyme is used per well. A 5 μL portion of reaction buffer or of drug diluted in buffer (e.g., 4 μL/100 so final DMSO is 1% in reaction) is added to each. Pipetting up and down mixes the samples. Alternatively, the enzyme can be diluted to 1215 μL. In this case 9.8 μL is added per well and 0.2 μL compound is added in DMSO.
To prepare 1 mL of substrate solution, 955 μL reaction buffer, 40 μL PIP2, and 2.5 μL ATP are mixed. 10 μL of substrate is added to each well to start the reaction. […] The stop/detector mix is prepared by mixing 4 μL red detector and 1.6 μL or 2.0 μL GST-GRP with 1 mL stop buffer, which results in 10 nM probe and 70 nM GST-GRP. 20 μL of the stop/detector mix is added to each well to stop the reaction. The plates are read after 30-90 minutes keeping the red probe solutions dark. For the zero time point, stop/detector mix is added to the enzyme just before adding substrate. For an extra control, stop/detector mix is added to buffer (no enzyme) and substrate or to just buffer (no substrate). […] The recommended reaction has 0.06 μL per 20 μL (0.015 μg/20 μL) or 0.01125 μg/15 μL or 0.75 μg/mL.
Plates are read on machines with filters for TAMRA. The units are mP with no enzyme controls reading app 190-220 mP units. Fully active enzyme reduces fluorescence polarization down to 70-100 mP after 30 minutes. An active compound raises the mP values halfway to control or to 120-150 mP units.

LNCap = test: In vitro cell growth assay (MTS), LNCap; format: cell-based; conditions: LNCaP, 72 h, human prostate line, three days after drug treatment
Protocol: (§1) The cell lines used were human prostate lines LNCap and PC3MM2, human breast lines MDA468 and MCF7, human renal line HTB44 (A498), human colon line HCT116, and human ovarian line OVCAR3. Cells were plated in 96-well culture plates. One day following plating, the inhibitors were added to cells. Three days after drug treatment, viable cell densities were determined by metabolic conversion (by viable cells) of the dye MTS, a well-established cell proliferation assay. The assays were performed using an assay kit purchased from Promega Corp. (Madison, Wis.) following the protocol supplied with the kit. The MTS assay results were read in a 96-well plate reader by measuring absorbance at 490 nm. The effect of each treatment was calculated as percent of control growth relative to the vehicle-treated cells grown in the same culture plate.

MDA468 = test: In vitro cell growth assay (MTS), MDA468; format: cell-based; conditions: 72 h, human breast line MDA468, three days after drug treatment, read-out: MDA IC50
Protocol: as §1

mTOR = mTOR (Homo sapiens, UniProt P42345); test: mTOR enzyme assay (DELFIA, purified FLAG-TOR, His6-S6K substrate); format: biochemical; set-up: FLAG; conditions: 100 μM ATP, 2 hours
Sequence of mTOR (P42345 1360-2549 limits assumed): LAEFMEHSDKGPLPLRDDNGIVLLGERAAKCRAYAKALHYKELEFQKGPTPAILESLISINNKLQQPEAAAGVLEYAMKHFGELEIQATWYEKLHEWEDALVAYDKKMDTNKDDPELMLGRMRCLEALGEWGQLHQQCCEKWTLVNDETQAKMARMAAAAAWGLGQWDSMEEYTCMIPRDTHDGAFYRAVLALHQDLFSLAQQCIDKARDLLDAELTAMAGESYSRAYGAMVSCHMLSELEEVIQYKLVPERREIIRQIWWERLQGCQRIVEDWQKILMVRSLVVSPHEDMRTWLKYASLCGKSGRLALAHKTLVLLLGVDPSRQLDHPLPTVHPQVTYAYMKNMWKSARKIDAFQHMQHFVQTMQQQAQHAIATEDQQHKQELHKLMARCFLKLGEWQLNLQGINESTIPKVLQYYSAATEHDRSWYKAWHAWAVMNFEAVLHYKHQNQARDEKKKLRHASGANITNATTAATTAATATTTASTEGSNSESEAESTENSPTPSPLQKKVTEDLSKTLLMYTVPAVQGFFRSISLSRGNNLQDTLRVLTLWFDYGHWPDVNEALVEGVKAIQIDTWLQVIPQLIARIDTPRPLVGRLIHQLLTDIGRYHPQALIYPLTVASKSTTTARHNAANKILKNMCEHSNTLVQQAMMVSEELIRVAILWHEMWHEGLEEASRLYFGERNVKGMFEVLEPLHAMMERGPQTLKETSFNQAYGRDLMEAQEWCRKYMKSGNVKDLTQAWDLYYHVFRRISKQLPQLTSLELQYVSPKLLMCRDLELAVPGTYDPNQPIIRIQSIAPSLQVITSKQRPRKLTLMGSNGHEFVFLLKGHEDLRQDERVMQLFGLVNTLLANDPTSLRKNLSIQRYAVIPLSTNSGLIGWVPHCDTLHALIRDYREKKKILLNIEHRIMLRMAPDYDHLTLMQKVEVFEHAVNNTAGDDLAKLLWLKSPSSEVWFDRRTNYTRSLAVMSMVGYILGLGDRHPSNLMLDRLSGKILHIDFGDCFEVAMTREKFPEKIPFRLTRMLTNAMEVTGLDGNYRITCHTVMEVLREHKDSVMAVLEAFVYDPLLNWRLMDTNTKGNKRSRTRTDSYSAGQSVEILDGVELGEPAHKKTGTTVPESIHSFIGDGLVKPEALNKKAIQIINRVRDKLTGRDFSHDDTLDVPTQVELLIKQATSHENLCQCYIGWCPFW

Sequence of PI3K-alpha (P42336 whole entry, species assumed): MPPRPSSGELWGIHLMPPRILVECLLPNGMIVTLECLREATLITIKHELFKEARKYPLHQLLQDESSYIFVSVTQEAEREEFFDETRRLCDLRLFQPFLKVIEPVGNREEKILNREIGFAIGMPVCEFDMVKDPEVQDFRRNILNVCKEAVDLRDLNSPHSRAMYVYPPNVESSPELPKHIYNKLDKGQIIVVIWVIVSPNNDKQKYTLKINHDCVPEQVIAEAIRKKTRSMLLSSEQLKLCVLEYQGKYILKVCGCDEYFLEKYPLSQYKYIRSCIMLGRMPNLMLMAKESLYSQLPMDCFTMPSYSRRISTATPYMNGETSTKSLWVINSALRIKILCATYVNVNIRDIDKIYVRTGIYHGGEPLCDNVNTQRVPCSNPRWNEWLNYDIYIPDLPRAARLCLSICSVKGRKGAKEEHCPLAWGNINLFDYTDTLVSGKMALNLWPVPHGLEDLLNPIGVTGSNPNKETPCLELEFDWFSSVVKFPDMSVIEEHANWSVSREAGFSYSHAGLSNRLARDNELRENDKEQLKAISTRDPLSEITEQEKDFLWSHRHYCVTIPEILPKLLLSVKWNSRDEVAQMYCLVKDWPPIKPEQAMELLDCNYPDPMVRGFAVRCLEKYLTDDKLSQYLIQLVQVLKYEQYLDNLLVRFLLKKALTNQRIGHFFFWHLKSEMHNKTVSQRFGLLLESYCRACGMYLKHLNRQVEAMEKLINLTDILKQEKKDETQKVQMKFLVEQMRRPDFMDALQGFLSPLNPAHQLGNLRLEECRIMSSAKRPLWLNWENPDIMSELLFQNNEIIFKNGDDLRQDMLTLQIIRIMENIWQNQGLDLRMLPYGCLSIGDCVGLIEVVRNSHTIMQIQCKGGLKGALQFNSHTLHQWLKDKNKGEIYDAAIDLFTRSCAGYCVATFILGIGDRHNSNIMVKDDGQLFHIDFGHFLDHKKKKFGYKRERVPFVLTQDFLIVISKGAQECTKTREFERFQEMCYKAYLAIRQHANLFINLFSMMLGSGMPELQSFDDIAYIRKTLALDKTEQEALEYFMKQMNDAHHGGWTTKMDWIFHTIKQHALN
Sequence of PI3K-alpha (P27986 whole entry partner, species assumed): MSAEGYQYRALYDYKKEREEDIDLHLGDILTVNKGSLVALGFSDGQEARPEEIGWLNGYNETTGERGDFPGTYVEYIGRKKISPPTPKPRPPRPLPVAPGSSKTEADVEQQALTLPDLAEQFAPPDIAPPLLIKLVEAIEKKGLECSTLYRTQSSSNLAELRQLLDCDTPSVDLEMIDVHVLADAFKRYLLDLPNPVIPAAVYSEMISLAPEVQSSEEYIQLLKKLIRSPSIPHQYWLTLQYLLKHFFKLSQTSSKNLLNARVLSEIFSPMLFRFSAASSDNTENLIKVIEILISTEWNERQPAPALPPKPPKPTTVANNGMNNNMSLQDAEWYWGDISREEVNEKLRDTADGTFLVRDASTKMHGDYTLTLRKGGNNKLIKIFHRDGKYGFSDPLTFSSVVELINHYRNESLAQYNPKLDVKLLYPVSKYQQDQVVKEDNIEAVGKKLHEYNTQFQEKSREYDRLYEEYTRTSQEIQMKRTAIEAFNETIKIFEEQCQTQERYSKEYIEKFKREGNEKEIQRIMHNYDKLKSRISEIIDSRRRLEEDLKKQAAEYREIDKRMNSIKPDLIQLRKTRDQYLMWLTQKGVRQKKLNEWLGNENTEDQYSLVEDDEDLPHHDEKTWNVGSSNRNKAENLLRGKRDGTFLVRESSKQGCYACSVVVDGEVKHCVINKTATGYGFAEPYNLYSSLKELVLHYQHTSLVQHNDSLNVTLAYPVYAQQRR

SMILES	IC50 (PI3K-alpha)	IC50 (LNCap)	IC50 (MDA468)	IC50 (mTOR)
CNC(=O)Nc1ccc(-c2nc(N3CC4CCC(C3)O4)cc(C(F)(F)F)n2)cc1 [1-methyl-3-{4-[4-(8-oxa-3-azabicyclo[3.2.1]oct-3-yl)-6-(trifluoromethyl)pyrimidin-2-yl]phenyl}urea]	1550 nM	670 nM	2100 nM	11.5 nM
O=C(Nc1ccc(-c2nc(N3CC4CCC(C3)O4)cc(C(F)(F)F)n2)cc1)NC1CC1 [1-cyclopropyl-3-{4-[4-(8-oxa-3-azabicyclo[3.2.1]oct-3-yl)-6-(trifluoromethyl)pyrimidin-2-yl]phenyl}urea]	8160 nM	450 nM	3000 nM	10.4 nM
CC(C)Nc1cc(N2CC3CCC(C2)O3)nc(-c2ccc(NC(=O)Nc3ccncc3)cc2)n1 [1-(4-{4-[(1-methylethyl)amino]-6-(8-oxa-3-azabicyclo[3.2.1]oct-3-yl)pyrimidin-2-yl}phenyl)-3-pyridin-4-ylurea]	140 nM	51 nM	310 nM	0.785 nM
CNC(=O)Nc1ccc(-c2cc(N3CC4CCC(C3)O4)nc(N3CC4CCC(C3)O4)n2)cc1 [1-[4-(2,6-di-8-oxa-3-azabicyclo[3.2.1]oct-3-ylpyrimidin-4-yl)phenyl]-3-methylurea]	2490 nM	1600 nM	4200 nM	20.5 nM
O=C(Nc1ccc(-c2cc(N3CC4CCC(C3)O4)nc(N3CC4CCC(C3)O4)n2)cc1)NC1CC1 [1-cyclopropyl-3-[4-(2,6-di-8-oxa-3-azabicyclo[3.2.1]oct-3-ylpyrimidin-4-yl)phenyl]urea]	3930 nM	800 nM	6000 nM	38.5 nM
CNC(=O)Nc1ccc(-c2nccc(N3CC4CCC(C3)O4)n2)cc1 [1-methyl-3-{4-[4-(8-oxa-3-azabicyclo[3.2.1]oct-3-yl)pyrimidin-2-yl]phenyl}urea]	1840 nM	2500 nM	10500 nM	132 nM
O=C(Nc1ccncc1)Nc1ccc(-c2cc(N3CC4CCC(C3)O4)nc(-c3ccc(NC(=O)Nc4ccncc4)cc3)n2)cc1 [N,N″-{[6-(8-oxa-3-azabicyclo[3.2.1]oct-3-yl)pyrimidine-2,4-diyl]di-4,1-phenylene}bis(3-pyridin-4-ylurea)]	69.5 nM	220 nM	780 nM	3.2 nM
O=C(Nc1ccncc1)Nc1ccc(-c2nc(-c3ccccc3)cc(N3CC4CCC(C3)O4)n2)cc1 [1-{4-[4-(8-oxa-3-azabicyclo[3.2.1]oct-3-yl)-6-phenylpyrimidin-2-yl]phenyl}-3-pyridin-4-ylurea]	229 nM	290 nM	390 nM	5.6 nM
CS(=O)(=O)Cc1cc(N2CC3CCC(C2)O3)nc(-c2ccc(NC(=O)Nc3ccccc3)cc2)n1 [1-(4-{4-[(methylsulfonyl)methyl]-6-(8-oxa-3-azabicyclo[3.2.1]oct-3-yl)pyrimidin-2-yl}phenyl)-3-phenylurea]	172 nM	0.9 nM	9 nM	3 nM
O=C(Nc1ccc(-c2nccc(N3CC4CCC(C3)O4)n2)cc1)OCCO [2-hydroxyethyl {4-[4-(8-oxa-3-azabicyclo[3.2.1]oct-3-yl)pyrimidin-2-yl]phenyl}carbamate]	5070 nM	4000 nM	24000 nM	165 nM
CC(C)Nc1cc(N2CC3CCC(C2)O3)nc(-c2ccc(NC(=O)NC3CC3)cc2)n1 [1-cyclopropyl-3-(4-{4-[(1-methylethyl)amino]-6-(8-oxa-3-azabicyclo[3.2.1]oct-3-yl)pyrimidin-2-yl}phenyl)urea]	3620 nM	700 nM	4200 nM	8.2 nM
CS(=O)(=O)Cc1cc(N2CC3CCC(C2)O3)nc(-c2ccc(NC(=O)Nc3ccc(N4CCNCC4)cc3)cc2)n1 [1-(4-{4-[(methylsulfonyl)methyl]-6-(8-oxa-3-azabicyclo[3.2.1]oct-3-yl)pyrimidin-2-yl}phenyl)-3-(4-piperazin-1-ylphenyl)urea]	242 nM	90 nM	110 nM	3 nM
CN(C)CCOc1ccc(NC(=O)Nc2ccc(-c3nc(CS(C)(=O)=O)cc(N4CC5CCC(C4)O5)n3)cc2)cc1 [1-{4-[2-(dimethylamino)ethoxy]phenyl}-3-(4-{4-[(methylsulfonyl)methyl]-6-(8-oxa-3-azabicyclo[3.2.1]oct-3-yl)pyrimidin-2-yl}phenyl)urea]	405 nM	90 nM	165 nM	5 nM
CC(C)Nc1cc(N2CC3CCC(C2)O3)nc(-c2ccc(NC(=O)Nc3ccc(N4CCN(C)CC4)cc3)cc2)n1 [1-(4-{4-[(1-methylethyl)amino]-6-(8-oxa-3-azabicyclo[3.2.1]oct-3-yl)pyrimidin-2-yl}phenyl)-3-[4-(4-methylpiperazin-1-yl)phenyl]urea]	212 nM	13.4 nM	50 nM	4.17 nM
O=C(Nc1ccncc1)Nc1ccc(-c2nccc(N3CC4CCC(C3)O4)n2)cc1 [1-{4-[4-(8-oxa-3-azabicyclo[3.2.1]oct-3-yl)pyrimidin-2-yl]phenyl}-3-pyridin-4-ylurea]	224 nM	180 nM	650 nM	14.5 nM
O=C(Nc1ccncc1)Nc1ccc(-c2nc(N3C4CCC3COC4)cc(N3C4CCC3COC4)n2)cc1 [1-[4-(4,6-di-3-oxa-8-azabicyclo[3.2.1]oct-8-ylpyrimidin-2-yl)phenyl]-3-pyridin-4-ylurea]	954 nM	3 nM	19 nM	0.655 nM
CC(C)Nc1cc(N2C3CCC2COC3)nc(-c2ccc(NC(=O)Nc3ccc(OCCN(C)C)cc3)cc2)n1 [1-{4-[2-(dimethylamino)ethoxy]phenyl}-3-{4-[4-(isopropylamino)-6-(3-oxa-8-azabicyclo[3.2.1]oct-8-yl)pyrimidin-2-yl]phenyl}urea]	2380 nM	50 nM	710 nM	3.6 nM
O=C(Nc1ccc(-c2nc(N3CC4CCC(C3)O4)cc(C(F)(F)F)n2)cc1)OCCO [2-hydroxyethyl {4-[4-(8-oxa-3-azabicyclo[3.2.1]oct-3-yl)-6-(trifluoromethyl)pyrimidin-2-yl]phenyl}carbamate]	5160 nM	950 nM	4000 nM	15.5 nM
CC(C)Oc1cc(N2CC3CCC(C2)O3)nc(-c2ccc(NC(=O)Nc3ccncc3)cc2)n1 [1-{4-[4-(1-methylethoxy)-6-(8-oxa-3-azabicyclo[3.2.1]oct-3-yl)pyrimidin-2-yl]phenyl}-3-pyridin-4-ylurea]	264 nM	23 nM	180 nM	1.35 nM
Nc1ccc(-c2nccc(N3CC4CCC(C3)O4)n2)cc1 [4-[4-(8-oxa-3-azabicyclo[3.2.1]oct-3-yl)pyrimidin-2-yl]aniline]	6850 nM	41000 nM	≥ 60000 nM	4000 nM
CCNC(=O)Nc1ccc(-c2nc(-c3ccccc3)cc(N3CC4CCC(C3)O4)n2)cc1 [1-ethyl-3-{4-[4-(8-oxa-3-azabicyclo[3.2.1]oct-3-yl)-6-phenylpyrimidin-2-yl]phenyl}urea]	2050 nM	450 nM	1900 nM	11 nM

Reference: US8835429B2, “Pyrimidine compounds, their use as mTOR kinase and Pl3 kinase inhibitors, and their syntheses” (Wyeth LLC, priority 2009, dated 2014)
